Laboratory results as given in patent US7169932B2 (priority 2001, dated 2007).
Several values for one entry are separate records, joined by “and”; a condition that tells them apart may be missing. Identical values can stand only once.

What was measured:
[1] = system: HIV-1; assay: Cytopathic Effect (CPE) Inhibition Assay (XTT dye reduction); type: cell-based; details: Human immunodeficiency virus 1, 144 h, read-out: Ave CPE EC50 (mM), protection of infected cells, six days, XTT
Summary of the method: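 CEM-SS or MT-2 cells infected with HIV-1 RF or NL4–3 (moi 0.025–0.819), 2×10^4 cells/well, incubated six days with half-log compound dilutions. Viability read by XTT formazan at 450 nm; EC50 is the concentration restoring 50% of uninfected-control formazan, CC50 from uninfected treated cells, therapeutic index CC50/EC50.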

[2] = system: 46I, 84V, 90M virus; assay: Phenotypic susceptibility assay at Virologic, Inc.; type: cell-based, HIV-1; details: Human immunodeficiency virus 1
Method: Compounds were tested in phenotypic susceptibility assays at Virologic, Inc., (See Petropoulos C. J., Parkin N. T., Limoli K. L., Lie Y. S., Wrin T., Huang W., Tian H., Smith D., Winslow G. A., Capon D J, Whitcomb J M. 2000, “A novel phenotypic drug susceptibility assay for human immunodeficiency virus type 1,” Antimicrob Agents Chemother 44(4):920–928) or using the assay described here. MT-2 cells were infected with either HIV-1 NL4–3 or HIV-1 NL4–3(184V/L90M) and incubated in the presence of serial 0.5 log dilutions of test compounds. Three days later, culture supernatants were collected and virus production, as determined by p24 ELISA, was assayed. Percent inhibition was calculated as p24 concentration in compound-treated samples as compared to infected, compound-free controls. Inhibition of viral replication is determined by measuring reduction in HIV p24 present in the culture supernatant, using a Beckman-Coulter p24 HIV-1 Ag EIA kit and following the supplied protocol. Absorbance is read on a MRX microplate reader (Dynex Technologies). The EC50 was calculated as the concentration of compound that effected a decrease in the p24 production by infected, compound-treated cells to 50% of that produced by infected, compound-free cells.

[3] = molecular target: T1, HIV-1 protease (Q7S) (Human immunodeficiency virus type 1 group M subtype B, UniProt P04585, Q495S); assay: HIV-1 Protease RET Assay; type: biochemical; details: Ave. Ki (nM), RET assay, Q7S enzyme, pH 4.8, 37 C
T1 construct: made in house
Summary of the method: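 Ki values came from a RET assay on refolded Q7S protease (2 nM active dimer) cleaving RE(EDANS)SQNYPIVQK(DABCYL)R at 5 μM, read at ex 340/em 490 nm. Reactions ran 12 min at 37 C in 0.1M sodium acetate pH 4.8, 1M NaCl, 5 mM DTT, 10% DMSO; curves were fit with the Morrison tight-binding equation.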

SMILES | EC50 [1] | IC50 [2] | Ki [3] | melting point
Cc1c(O)cccc1C(=O)N[C@@H](Cc1ccccc1)[C@H](O)C(=O)N1CSC(C)(C)[C@H]1C(=O)NCC#N [Example A30, (R)-3-((2S,3S)-2-Hydroxy-3-{[1-(3-hydroxy-2-methyl-phenyl)-methanoyl]-amino}-4-phenyl-butanoyl)-5,5-dimethyl-thiazolidine-4-carboxylic acid cyanomethylamide] | 507 nM | 829 nM | 1.1 nM | –
C=CCNC(=O)[C@H]1N(C(=O)[C@@H](O)[C@H](Cc2ccccc2)NC(=O)c2cccc(O)c2C)CSC1(C)C [Example A14, (R)-3-((2S,3S)-2-Hydroxy-3-{[1-(3-hydroxy-2-methyl-phenyl)-methanoyl]-amino}-4-phenyl-butanoyl)-5,5-dimethyl-thiazolidine-4-carboxylic acid allylamide] | 52 nM | 71 nM | 0.44 nM | –
Cc1ccccc1CNC(=O)[C@H]1N(C(=O)[C@@H](O)[C@H](Cc2ccccc2)NC(=O)N2CC[C@H](O)C2)CSC1(C)C (stereo in doubt) [Example B8, 3-(2-hydroxy-3-{[1-(3-hydroxy-pyrrolidin-yl)-methanoyl]-amino}-4-phenyl-butanoyl)-5,5-dimethyl-thiazolidine-4-carboxylic acid-2-methyl-benzylamide] | – | 405 nM | 0.31 nM and 1.5 nM | –
C#CCNC(=O)[C@H]1N(C(=O)[C@@H](O)[C@H](Cc2ccccc2)NC(=O)c2cccc(O)c2C)CSC1(C)C [Example A17, 3-(2-Hydroxy-3-{[1-(3-hydroxy-2-methyl-phenyl)-methanoyl]-amino}-4-phenyl-butanoyl)-5,5-dimethyl-thiazolidine-4-carboxylic acid prop-2-ynylamide] | 45 nM | 102 nM | < 0.1 nM | –
Cc1c(O)cccc1C(=O)N[C@@H](Cc1ccccc1)[C@H](O)C(=O)N1CSC(C)(C)[C@H]1C(=O)N[C@@H](C)c1ccccc1 [Example A20, (R)-3-((2S,3S)-2-Hydroxy-3-{[1-(3-hydroxy-2-methyl-phenyl)-methanoyl]-amino}-4-phenyl-butanoyl)-5,5-dimethyl-thiazolidine-4-carboxylic acid ((S)-1-phenyl-ethyl)-amide] | 37 nM | 147 nM | 0.13 nM | 114 to 115 °C
Cc1nc(C)c(C(=O)N[C@@H](Cc2ccccc2)[C@H](O)C(=O)N2CSC(C)(C)[C@H]2C(=O)NCc2ccccc2C)s1 [Example B11, 2,4-Dimethyl-thiazole-5-carboxylic acid {1-benzyl-3-[5,5-dimethyl-4-(2-methyl-benzylcarbamoyl)-thiazolidin-3-yl]-2-hydroxy-3-oxo-propyl}-amide] | 1180 nM | 1720 nM | 1.2 nM | –
CCOc1cccc(CNC(=O)[C@H]2N(C(=O)[C@@H](O)[C@H](Cc3ccccc3)NC(=O)c3cccc(O)c3C)CSC2(C)C)c1 [Example A26, (R)-3-((2S,3S)-2-Hydroxy-3-{[1-(3-hydroxy-2-methyl-phenyl)-methanoyl]-amino}-4-phenyl-butanoyl)-5,5-dimethyl-thiazolidine-4-carboxylic acid 3-ethoxy-benzylamide] | 119 nM | 321 nM | 0.38 nM | 105 to 107 °C
